Data reported in patent US20210293825A1, “METHODS FOR PRECISION THERAPEUTIC TARGETING OF HUMAN CANCER CELL MOTILITY AND KITS THEREOF” (UNITED STATES GOVERNMENT AS REPRESENTED BY THE DEPARTMENT …, priority 2018, published 2021).

How the values were obtained:
[1] = tested on: PC3-M cells; assay: Boyden chamber cell invasion assay, PC3-M cells; assay type: cell-based, human
Protocol: Following the synthetic strategy outlined in FIG. 1a, 4′,5,7-trihydroxyisoflavone was used as the chemical scaffold. […] Note, demethylation within the cell cannot be predicted. Therefore, the loss of function was considered to be informative for methylated compounds. […] This adds further evidence of the importance of the C4′-hydroxyl for activity. […] For cell invasion, PC3-M cells were treated with 10 μM compound for a total of 3 days, and cell invasion assays were run at the end of the 3 day period, in the presence of compound. Values are the mean±SEM of three separate experiments, each run in replicates of N=3. […] Values are the mean±SEM of a single experiment, in replicates of N=4, repeated at least once (also N=4). […] The initial structure-activity relationship (SAR) data informed the second round of compound synthesis. […] Compared to 4′,5,7-trihydroxyisoflavone, KBU2046 is non-planar, lacks hydroxyl groups, and particularly those that mediate ER binding, is halogen-substituted, and has a distinctly different biological profile. These characteristics place KBU2046 in a chemically distinct class, compared to the starting compound.
Cell Invasion Assays. Boyden chamber cell invasion assays were performed as previously described^9, using either denatured collagen (BD Biosciences) or type IV human collagen (BD Biosciences), with the experiments repeated, each in N=4 replicates. In some experiments, as indicated, cells were transfected with an expression plasmid, using Lipofectamine 2000™ (Invitrogen), or with siRNA, using DharmaFect Duo (Thermo Scientific) and co-transfected with β-Galactosidase (Plasmid pCMV⋅SPORT-βgal; Life Technology).
The initial round of synthesis was designed to examine the removal of individual chemical fragments. In this manner, the importance of these functional groups in mediating efficacy (inhibition of cell invasion) could be determined. […] Initial assays were performed with PC3 and PC3-M cells. However, as these studies yielded similar findings, subsequent screening assays utilized only PC3-M cells. In designing chemical synthetic routes, priority was given to efficacy and toxicity parameters. […] These additional design features included removal of fragments that mediated genistein binding to the estrogen receptor (ER), as determined by ER-genistein 3D x-ray crystal structures (Protein Data Base IDs: 1X7R and 1X7J, for crystal structures of ERα and ERβ with bound genistein, respectively). These features also included removal of chemical fragments that are considered to increase susceptibility to rapid metabolism, for example by the cytochrome P450 (CYP) pathway. The final feature involved incorporation of chemical characteristics previously shown to be associated with effective drugs and which together generally impart more favorable pharmacologic properties, including those described by Lipinski et al. (Lipinski, C. A. et al., Adv Drug Deliv Rev 46, 3-26 (2001)).

[2] = target: T1, MKK4 (Homo sapiens, UniProt P45985, S257E/T261E); assay: MKK4 in vitro kinase assay; assay type: biochemical; conditions: phosphorylation of kinase dead p38a MAPK
T1 sequence (P45985 37-399 S257E/T261E): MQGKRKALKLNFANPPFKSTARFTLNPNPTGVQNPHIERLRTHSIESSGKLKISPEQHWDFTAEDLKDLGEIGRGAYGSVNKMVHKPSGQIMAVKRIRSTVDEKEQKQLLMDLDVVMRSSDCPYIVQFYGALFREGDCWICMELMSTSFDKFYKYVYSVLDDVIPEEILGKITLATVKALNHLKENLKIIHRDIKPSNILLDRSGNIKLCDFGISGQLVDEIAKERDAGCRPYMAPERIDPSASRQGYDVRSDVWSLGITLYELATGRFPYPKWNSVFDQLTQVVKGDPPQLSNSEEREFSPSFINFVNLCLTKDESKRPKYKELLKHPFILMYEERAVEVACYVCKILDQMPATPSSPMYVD
Protocol: FIG. 16a is a depiction of established MKK4 pathway regulating human PCa cell metastasis. […] Values are the mean±SD (of N=2 replicates) increase in melting temperature (ΔTm) of purified recombinant MKK4 induced by the indicated concentrations of KBU2046 or genistein. […] The indicated concentrations of KBU2046 were added to recombinant activated MKK4, and its ability to phosphorylate kinase dead p38a MAPK (K53A) was measured by Western blot for total (p38 MAPK) and phosphorylated (pp38 MAPK) forms of p38 MAPK. […] PC3-M cells were pre-treated for 24 hours with 50 μM KBU2046 or genistein, as indicated, then with TGFβ, and Western blot performed. These findings are from a single experiment, with similar findings in identical separate experiments, repeated at least once.
In Vitro Kinase Assays. MEK4/MKK4/MAP2K4 in vitro kinase assay was performed as described (Krishna, S. N. et al., PLoS One 8, e81504 (2013)). HSP90β/CDC37 heterocomplex kinase assays with RAF1, SGK3 and MAP3K6 assays incubated indicated proteins in 20 mM MOPS, pH 7.2, 25 mM β-glycerol phosphate, 5 mM EGTA, 1 mM sodium orthovanadate, 1 mM dithiothreitol, 0.25 mM ATP and 37.5 mM MgCl2 at 30° C. for the indicated times.

[3] = Histologic examination of tissue / systemic off-target effects; assay type: in vivo, Balb/c athymic mice
Protocol: Histologic examination of tissue. Organs of athymic male mice stained with H&E, Trichrome or Giemsa were microscopically examined by a mouse pathologist in a blinded fashion, and toxicity scored using an established semi-quantitative histological scoring system (Knodell, R. G. et al., Hepatology 1, 431-5 (1981)) (FIG. 14). The following clinical chemistry parameters were measured in blood of CD1 male and female mice by Charles River Research Animal Diagnostic Services: cholesterol, triglycerides, alanine aminotransferase (ALT), aspartate aminotransferase (AST), total bilirubin, glucose, phosphorus, total protein, calcium, blood urea nitrogen (BUN), creatinine, albumin, Na, K, Cl, white blood cells (with differential), red blood cells, hemoglobin, and platelets.
After 35 days of treatment, the following organs were harvested at necropsy, and stained with H&E (alternative staining methods as indicated): heart, lungs, esophagus, stomach, colon, small intestine, liver (Trichrome staining), kidneys (Trichrome staining), adrenals, bladder, prostate, spleen, pancreas, brain, testes, and bone marrow and peripheral blood (Giemsa staining). Organs were examined for damage using a semi-quantitative histological scoring system, as described (Knodell, R. G. et al., Hepatology 1, 431-5 (1981)). […] Note that mice were immunocompromised, and that changes in the liver reflected episodic and minor foci of necrosis, consistent with a prior resolved infection; clinically, mice were all healthy. The graph above depicts the scoring of liver lesions, with each data point representing a single mouse.

In the case of O=C1c2ccccc2OCC1c1ccc(F)cc1 (racemic) [KBU2046, (±)-3(4-fluorophenyl)chroman-4-one], the “effect on cell invasion” value ([1]; 10 μM compound, 3 days) is reported as “anti-invasive efficacy at least equal to that of the starting compound”, the “inhibition of cell invasion” value ([1]; (S226A)-HSP90β transfected PC3-M cells) is reported as “does not further inhibit cell invasion” and the “inhibition of cell invasion” value ([1]; (S226D)-HSP90β transfected PC3-M cells) is reported as “did not significantly inhibit cell invasion”. The “anti-invasion efficacy under TGFβ-stimulated invasion” value ([1]; PC3-M cells, ±TGFβ) was “retains efficacy”, the “inhibition of cell invasion” value ([1]; VC and WT-HSP90β transfected PC3-M cells) was “significantly inhibited invasion” and the “efficacy on cell invasion” value ([1]; siRNA-mediated HSP90β knockdown) was “abrogated KBU2046 efficacy”. The “inhibition of cell invasion” value ([1]; vector control (VC) transfected PC3-M cells) was “significantly inhibits invasion”, the “inhibition of MKK4 kinase activity” value [2] was “does not inhibit MKK4” and the “changes in the liver” value ([3]; 35 days of treatment in chow) was “not increased by KBU2046 treatment”. The “organ damage (histological scoring)” value ([3]; 35 days of treatment in chow) was “No organ damage was observed, except in the livers of both control and treatment mice” and the “off-target effects (tumor growth, behavior, weight, histology, serum chemistry)” value ([3]; mouse, in vivo) was “failed to identify KBU2046-associated off-target effects”.
